Here are results for ten compounds from patent US11597721B2, “Heterocyclic compounds comprising pyridine useful as modulators of IL-12, IL-23 and/or IFNα responses” (BRISTOL-MYERS SQUIBB COMPANY, priority 2018, dated 2023).

The test has as its system IFNα-Induced STAT Phosphorylation. Briefly: IFNα-Induced STAT Phosphorylation in Human Whole Blood. As to conditions: Homo sapiens, 1 h compound incubation, 1000 U/mL recombinant human IFNα A/D for 15 min, pSTAT5 in CD3 positive population, read-out: LE Human WB IFNα-Induced Stat Phosph. (IC50). The format is cell-based. The source says:
IFNα-Induced STAT Phosphorylation in Human Whole Blood
The amount of pSTAT5 expression was quantitated by median fluorescence intensity after gating on the CD3 positive population.
By IC50 is commonly meant the concentration that inhibits the measured activity by half. `[2H]C([2H])([2H])NC(=O)c1cnc(NC(=O)C2CC2)cc1Nc1nccc(-c2ccc(Cl)cn2)c1OC` [Example 86, 4-((5-Chloro-3′-methoxy-[2,4′-bipyridin]-2′-yl)amino)-6-(cyclopropanecarboxamido)-N-(methyl-d3)nicotinamide]: the IC50 amounted to 480 nM.
For `[2H]C([2H])([2H])NC(=O)c1nnc(NC(=O)C2CC2)cc1Nc1nccc(-c2cnc(C(=O)N(C)C)cn2)c1OC` [Example 87, 6-(Cyclopropanecarboxamido)-4-((4-(5-(dimethylcarbamoyl)pyrazin-2-yl)-3-methoxypyridin-2-yl)amino)-N-(methyl-d3)pyridazine-3-carboxamide], the IC50 was 30 nM.
Under `[2H]C([2H])([2H])NC(=O)c1nnc(NC(=O)C2CC2)cc1Nc1nccc(-c2cnc(C(=O)N(C)CC)cn2)c1OC` [Example 88, 6-(Cyclopropanecarboxamido)-4-((4-(5-(ethyl(methyl)carbamoyl)pyrazin-2-yl)-3-methoxypyridin-2-yl)amino)-N-(methyl-d3)pyridazine-3-carboxamide] stands 130 nM.
Regarding `[2H]C([2H])([2H])NC(=O)c1nnc(NC(=O)CC2CC2)cc1Nc1nccc(-c2cnc(C(=O)N(C)C)cn2)c1OC` [Example 89, 6-(2-Cyclopropylacetamido)-4-((4-(5-(dimethylcarbamoyl)pyrazin-2-yl)-3-methoxypyridin-2-yl)amino)-N-(methyl-d3)pyridazine-3-carboxamide], the IC50 is 210 nM.
`[2H]C([2H])([2H])NC(=O)c1nnc(Nc2ccn(C)n2)cc1Nc1nccc(-c2cnc(C(=O)N(C)C)cn2)c1OC` [Example 90, 4-((4-(5-(Dimethylcarbamoyl)pyrazin-2-yl)-3-methoxypyridin-2-yl)amino)-N-(methyl-d3)-6-((1-methyl-1H-pyrazol-3-yl)amino)pyridazine-3-carboxamide]: the IC50 stood at 60 nM.
The same measure for `[2H]C([2H])([2H])NC(=O)c1nnc(Nc2cc(C)n(C)n2)cc1Nc1nccc(-c2cnc(C(=O)N(C)C)cn2)c1OC` [Example 91, 6-((1,5-Dimethyl-1H-pyrazol-3-yl)amino)-4-((4-(5-(dimethylcarbamoyl)pyrazin-2-yl)-3-methoxypyridin-2-yl)amino)-N-(methyl-d3)pyridazine-3-carboxamide]: 90 nM; for `[2H]C([2H])([2H])NC(=O)c1nnc(Nc2cc(Cl)n(C)n2)cc1Nc1nccc(-c2cnc(C(=O)N(C)C)cn2)c1OC` [Example 92, 6-((5-Chloro-1-methyl-1H-pyrazol-3-yl)amino)-4-((4-(5-(dimethylcarbamoyl)pyrazin-2-yl)-3-methoxypyridin-2-yl)amino)-N-(methyl-d3)pyridazine-3-carboxamide]: 90 nM; for `[2H]C([2H])([2H])NC(=O)c1cnc(Nc2cc(C)ccn2)cc1Nc1nccc(-c2nnn(C)n2)c1OC` [Example 103, 4-((3-methoxy-4-(2-methyl-2H-tetrazol-5-yl)pyridin-2-yl)amino)-N-(methyl-d3)-6-((4-methylpyridin-2-yl)amino)nicotinamide]: 280 nM.
Consider `[2H]C([2H])([2H])NC(=O)c1cnc(NC(=O)CC)cc1Nc1nccc(-c2nnn(C)n2)c1OC` [Example 105, 4-{[3-methoxy-4-(2-methyl-2H-1,2,3,4-tetrazol-5-yl)pyridin-2-yl]amino}-N—(^2H3)methyl-6-propanamidopyridine-3-carboxamide], for which the half-inhibitory concentration (IC50) is 90 nM.
The same measure for `[2H]C([2H])([2H])NC(=O)c1cnc(Nc2cc(C#N)ccn2)cc1Nc1nccc(-c2nnn(C)n2)c1OC` [Example 106, 6-[(4-cyanopyridin-2-yl)amino]-4-{[3-methoxy-4-(2-methyl-2H-1,2,3,4-tetrazol-5-yl)pyridin-2-yl]amino}-N—(^2H3)methylpyridine-3-carboxamide]: 70 nM.
